Results taken from patent US20020123037A1, “Selection Procedure Using Prodrug/Enzyme System” (Cobra Therapeutics Limited, priority 1999, published 2002).
Where “and” joins values, the source holds several entries; their conditions need not be identical. Identical values can stand only once.

Tests used:
[1] = test system: nitroreductase-expressing tumours; conditions: mice harbouring nitroreductase-expressing tumours; McNeish et al., 1998; cited from earlier work
[2] = target: wild type nitroreductase (Escherichia coli, UniProt P38489); conditions: CB1954 as substrate, reference 9, cited from earlier work
Sequence of wild type nitroreductase (P38489 whole entry): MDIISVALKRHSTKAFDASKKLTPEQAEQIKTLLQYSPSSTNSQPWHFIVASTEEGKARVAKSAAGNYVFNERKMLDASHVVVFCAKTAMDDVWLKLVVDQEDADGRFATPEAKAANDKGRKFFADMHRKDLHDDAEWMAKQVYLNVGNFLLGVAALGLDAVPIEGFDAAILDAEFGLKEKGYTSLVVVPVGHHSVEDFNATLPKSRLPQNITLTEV

[3] = test system: E.coli C600Hfl lysogens of λJG3J1 and λJG16C1; experiment: Induction of phage release from 5:1 mixture of lysogens JG3J1 (control) and JG16C1 (ntr) by CB1954; type: cell-based; conditions: for #### (Control phage in the section above) / No. cols / Phage particles / No. ntr phage (colonies containing λJG16C1 of colonies screened by PCR): 500 μM CB1954
Protocol: E.coli C600Hfl (obtained from Promega Cat No. D3131) were infected with λJG3J1 or λJG16C1 for 15min at 37 °C and spread onto kanamycin (30µg/ml) selective Lennox agar (LA) plates to select for lysogens. A single colony of each was picked, and the lysogenic bacteria were then grown aerobically at 37 °C to mid log phase in LB containing 0.1mM IPTG. Approximately 4.8 x 10^8 λJG3J1 lysogens and 9 x 10^7 λ JG16C1 lysogens (as estimated from the optical density; approximate 5:1 ratio without:with nitroreductase) were mixed in 5ml LB containing 0.1mM IPTG in the presence or absence of 500 µM CB1954 (provided by Cobra Therapeutics and diluted from a 50mM stock solution in 2:7 N-methyl pyrrolidinone:PEG300). The mixtures of bacterial lysogens were incubated at 37 °C with shaking and 50µl samples removed at intervals between 15 and 185 minutes after mixing.
Each sample was immediately mixed with 1ml LB and 100µl chloroform to kill any bacteria, briefly centrifuged to pellet debris, and the supernatant diluted 1 in 10 before using 10 µl to infect E. coli C600Hfl and plating onto LA containing kanamycin, to select for bacteria lysogenised by bacteriophage in the sample.
The number of colonies growing from the samples was counted the following day, and indicates the total number of bacteriophage present in the sample.
The polymerase chain reaction (PCR) was used to determine whether the bacteria in each colony contained λJG3J1 or λJG16C1. A number of individual colonies were picked at random from the most relevant plates and transferred to a 200µl PCR tube, lysed in a microwave for 2min and 35µl of PCR reaction mix [16mM (NH4)2SO4, 67mM Tris-Cl (pH 8.8 at 25 °C), 0.01% Tween-20 (Bioline), 0.2mM each dNTP, 1.5mM MgCl2, 1 U Biotaq (Bioline)] plus 0.25 µM primersJ
A tube containing reaction mix but no bacteria was used as a control to check for contamination of PCR reaction components. After 30 cycles (94 °C/5min; then 30x 94 °C/45s, 55 °C/45s, 72 °C/160s; then 72 °C/10min) the PCR products were analysed by gel electrophoresis to determine the product size. Lysogens containing λJG16C1 expressing ntr gave a 1.1kb product whereas λJG3J1 lysogens gave a 0.4kb product. All the colonies gave one or the other of these two bands but not both, and the negative control confirmed the absence of contamination in the PCR.

[4] = test system: colorectal, pancreatic and ovarian tumour cell lines; conditions: retroviral transfer of nitroreductase expression cassette; McNeish et al., 1998; Green et al., 1996; cited from earlier work
[5] = test system: mammalian DT diaphorases; conditions: cited from earlier work
[6] = 15 min after mixing & induction
[7] = 30 min after mixing & induction
[8] = 45 min after mixing & induction
[9] = 60 min after mixing & induction
[10] = 75 min after mixing & induction
[11] = 90 min after mixing & induction
[12] = 125 min after mixing & induction
[13] = 155 min after mixing & induction
[14] = 185 min after mixing & induction

Q: Which results are given for `NC(=O)c1cc(N2CC2)c([N+](=O)[O-])cc1[N+](=O)[O-]` [CB1954, 5-[aziridin-1-yl]-2,4-dinitrobenzamide]?
A: survival of mice [1]: Significantly increased survival and apparent cures; turnover rate kcat [2]: 6 s⁻¹; Km ([2]; read-out: Michaelis constant KM): 860 µM; #### (Control phage in the section above) ([3]; 15 min, no PCR typing): 0.6; No. cols [3, 6]: 3; Phage particles [3, 6]: 0.6 10^−6 per ml; #### (Control phage in the section above) ([3]; 30 min, no PCR typing): 1; No. cols [3, 7]: 5; Phage particles [3, 7]: 1 10^−6 per ml; #### (Control phage in the section above) ([3]; 45 min, no PCR typing): 2.2; No. cols [3, 8]: 11; Phage particles [3, 8]: 2.2 10^−6 per ml; #### (Control phage in the section above) ([3]; 60 min): 3.82; No. ntr phage (colonies containing λJG16C1 of colonies screened by PCR) ([3]; 60 min): 1 of 11; No. cols [3, 9]: 21; Phage particles [3, 9]: 4.2 10^−6 per ml; #### (Control phage in the section above) ([3]; 75 min): 4.79; No. ntr phage (colonies containing λJG16C1 of colonies screened by PCR) ([3]; 75 min): 6 of 19; No. cols [3, 10]: 35; Phage particles [3, 10]: 7 10^−6 per ml; #### (Control phage in the section above) ([3]; 90 min): 9.6; No. ntr phage (colonies containing λJG16C1 of colonies screened by PCR) ([3]; 90 min): 18/30 and 18 of 30; No. cols [3, 11]: 120; Phage particles [3, 11]: 24 10^−6 per ml; #### (Control phage in the section above) ([3]; 125 min): 33.4; No. ntr phage (colonies containing λJG16C1 of colonies screened by PCR) ([3]; 125 min): 11 of 23; No. cols [3, 12]: 320; Phage particles [3, 12]: 64 10^−6 per ml; #### (Control phage in the section above) ([3]; 155 min): 54.7; No. ntr phage (colonies containing λJG16C1 of colonies screened by PCR) ([3]; 155 min): 6 of 25; No. cols [3, 13]: 360; Phage particles [3, 13]: 72 10^−6 per ml; #### (Control phage in the section above) ([3]; 185 min): 72; No. ntr phage (colonies containing λJG16C1 of colonies screened by PCR) ([3]; 185 min): 0 of 10; No. cols [3, 14]: 360; Phage particles [3, 14]: 72 10^−6 per ml; enrichment of λJG16C1 ([3]; 90 minute time point, 60% versus 16% at mixing): ~ 4 fold; proportion of λJG16C1 among recovered bacteriophage (peak) ([3]; culture exposed to CB1954, at 90 minutes, λJG16C1 16% of the mixture at mixing): 60%; peak concentration of the λJG16C1 ([3]; culture exposed to CB1954, at 125 minutes): 3 x 10^7 per ml; concentration of total bacteriophages released into the medium ([3]; culture exposed to CB1954, at 155 minutes): 7.2 x 10^7 per ml; concentration of total bacteriophages released into the medium ([3]; culture exposed to CB1954, at early times): 6 x 10^5 per ml; colony number ([3]; culture exposed to CB1954, end of the timecourse): ~ 360; colony number ([3]; culture exposed to CB1954, start of the timecourse): 3; level of bacteriophage above background ([3]; first ~60 minutes of exposure to CB1954): no increase; sensitisation of tumour cell lines to the prodrug [4]: can sensitise

Q: Which “activation by mammalian DT diaphorases” value [5] does the source give for `NC(=O)c1cc(N(CCCl)CCCl)c([N+](=O)[O-])cc1[N+](=O)[O-]` [SN 23862] here?
A: The value was “not activated”.
